ChEMBL document CHEMBL4610007, “Design and synthesis of boron-containing diphenylpyrimidines as potent BTK and JAK3 dual inhibitors” (Bioorg Med Chem, 2020)
Blank lines part the entries; values can stand above or below the compound they belong to.

What was measured:
[1] = molecular target: Tyrosine-protein kinase BTK (Homo sapiens, UniProt Q06187)
Description: Inhibition of recombinant human His-tagged full length BTK expressed in baculovirus expression system using Ulight-Poly GT as substrate incubated for 2 hrs by Lanthascreen TR-FRET assay

[2] = molecular target: Tyrosine-protein kinase JAK1 (Homo sapiens, UniProt P23458); experiment: Inhibition of recombinant human N-terminal GST-tagged JAK1 (850 to 1154 residues) expressed in baculovirus expression system using Ulight-Poly GT as substrate incubated for 2 hrs by Lanthascreen TR-FRET assay
[3] = molecular target: Non-receptor tyrosine-protein kinase TYK2 (Homo sapiens, UniProt P29597); experiment: Inhibition of recombinant human N-terminal GST-tagged TYK2 (871 to 1187 residues) expressed in baculovirus expression system using Ulight-Poly GT as substrate incubated for 2 hrs by Lanthascreen TR-FRET assay
Homo sapiens [4] = species on record: Homo sapiens; experiment: Selectivity index, ratio of IC50 for recombinant human N-terminal GST-tagged JAK1 (850 to 1154 residues) expressed in baculovirus expression system to IC50 for recombinant human N-terminal His-tagged JAK3 (795 to 1124 residues) expressed in baculovirus expression system
Homo sapiens [5] = species on record: Homo sapiens; experiment: Selectivity index, ratio of IC50 for recombinant human N-terminal His-tagged JAK2 (826 to 1132 residues) expressed in baculovirus expression system to IC50 for recombinant human N-terminal His-tagged JAK3 (795 to 1124 residues) expressed in baculovirus expression system
Homo sapiens [6] = species on record: Homo sapiens; experiment: Selectivity index, ratio of IC50 for recombinant human N-terminal GST-tagged TYK2 (871 to 1187 residues) expressed in baculovirus expression system to IC50 for recombinant human N-terminal His-tagged JAK3 (795 to 1124 residues) expressed in baculovirus expression system
[7] = molecular target: Tyrosine-protein kinase JAK2 (Homo sapiens, UniProt O60674)
Description: Inhibition of recombinant human N-terminal His-tagged JAK2 (826 to 1132 residues) expressed in baculovirus expression system using Ulight-Poly GT as substrate incubated for 2 hrs by Lanthascreen TR-FRET assay

[8] = molecular target: T1, Tyrosine-protein kinase JAK3 (Homo sapiens, UniProt P52333)
T1 sequence (P52333 whole entry): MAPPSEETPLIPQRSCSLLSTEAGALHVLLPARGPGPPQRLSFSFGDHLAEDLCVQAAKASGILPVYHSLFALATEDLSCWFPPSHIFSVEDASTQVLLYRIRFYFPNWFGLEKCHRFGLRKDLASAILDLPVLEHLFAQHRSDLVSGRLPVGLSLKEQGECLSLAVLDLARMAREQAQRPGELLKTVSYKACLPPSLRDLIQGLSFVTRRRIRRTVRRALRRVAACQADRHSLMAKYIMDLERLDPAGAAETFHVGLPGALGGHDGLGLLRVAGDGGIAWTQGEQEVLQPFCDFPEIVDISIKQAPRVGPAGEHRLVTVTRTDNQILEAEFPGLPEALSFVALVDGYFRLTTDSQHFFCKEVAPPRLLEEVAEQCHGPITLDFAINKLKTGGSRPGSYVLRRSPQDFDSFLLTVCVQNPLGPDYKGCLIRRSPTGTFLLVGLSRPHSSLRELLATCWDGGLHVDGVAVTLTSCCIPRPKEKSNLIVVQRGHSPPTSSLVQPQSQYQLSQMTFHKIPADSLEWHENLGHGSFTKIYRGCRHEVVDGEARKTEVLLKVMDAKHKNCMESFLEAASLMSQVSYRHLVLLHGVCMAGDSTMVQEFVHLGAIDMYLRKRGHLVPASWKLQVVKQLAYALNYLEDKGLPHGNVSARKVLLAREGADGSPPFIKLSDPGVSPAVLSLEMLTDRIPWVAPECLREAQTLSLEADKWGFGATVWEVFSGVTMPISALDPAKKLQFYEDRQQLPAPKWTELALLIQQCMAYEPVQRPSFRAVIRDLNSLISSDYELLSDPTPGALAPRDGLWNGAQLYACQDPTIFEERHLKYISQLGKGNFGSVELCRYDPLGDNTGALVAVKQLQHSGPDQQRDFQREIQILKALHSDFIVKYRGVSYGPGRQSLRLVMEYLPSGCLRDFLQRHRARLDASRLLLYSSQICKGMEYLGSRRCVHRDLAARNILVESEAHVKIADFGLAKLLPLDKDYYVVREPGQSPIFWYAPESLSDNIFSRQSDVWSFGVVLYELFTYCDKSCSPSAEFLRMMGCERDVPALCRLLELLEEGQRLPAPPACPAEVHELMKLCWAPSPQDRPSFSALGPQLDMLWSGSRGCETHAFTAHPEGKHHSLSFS
Description: Inhibition of recombinant human N-terminal His-tagged JAK3 (795 to 1124 residues) expressed in baculovirus expression system using Ulight-Poly GT as substrate incubated for 2 hrs by Lanthascreen TR-FRET assay

Raji = experiment: cells; conditions: Homo sapiens, 72 h
Description: Antiproliferative activity against human Raji cells assessed as reduction in cell viability incubated for 72 hrs by CCK-8 assay

Ramos = experiment: cells; conditions: Homo sapiens, 72 h
Description: Antiproliferative activity against human Ramos cells assessed as reduction in cell viability incubated for 72 hrs by CCK-8 assay

HEL = experiment: cells; conditions: Homo sapiens, 72 h
Description: Antiproliferative activity against human HEL cells assessed as reduction in cell viability incubated for 72 hrs by CCK-8 assay

JeKo-1 = experiment: cells; conditions: Homo sapiens, JeKo-1, 72 h
Description: Antiproliferative activity against human JeKo1 cells assessed as reduction in cell viability incubated for 72 hrs by CCK-8 assay

OCI-Ly10 = experiment: cells; conditions: Homo sapiens, OCI-Ly10, 72 h
Description: Antiproliferative activity against human OCI-LY10 cells assessed as reduction in cell viability incubated for 72 hrs by CCK-8 assay

in vitro [9] = conditions: human, liver microsomes
in vitro [10] = conditions: human, liver microsomes; remark: listed apart in the source
in vitro [11] = conditions: human, liver microsomes; remark: listed apart in the source
Description: Metabolic stability in human liver microsomes assessed as compound remaining at 0.2 uM incubated for 60 mins by UPLC-MS/MS analysis

Chain of Tyrosine-protein kinase JAK1 (P23458 whole entry, the tested form may be a part): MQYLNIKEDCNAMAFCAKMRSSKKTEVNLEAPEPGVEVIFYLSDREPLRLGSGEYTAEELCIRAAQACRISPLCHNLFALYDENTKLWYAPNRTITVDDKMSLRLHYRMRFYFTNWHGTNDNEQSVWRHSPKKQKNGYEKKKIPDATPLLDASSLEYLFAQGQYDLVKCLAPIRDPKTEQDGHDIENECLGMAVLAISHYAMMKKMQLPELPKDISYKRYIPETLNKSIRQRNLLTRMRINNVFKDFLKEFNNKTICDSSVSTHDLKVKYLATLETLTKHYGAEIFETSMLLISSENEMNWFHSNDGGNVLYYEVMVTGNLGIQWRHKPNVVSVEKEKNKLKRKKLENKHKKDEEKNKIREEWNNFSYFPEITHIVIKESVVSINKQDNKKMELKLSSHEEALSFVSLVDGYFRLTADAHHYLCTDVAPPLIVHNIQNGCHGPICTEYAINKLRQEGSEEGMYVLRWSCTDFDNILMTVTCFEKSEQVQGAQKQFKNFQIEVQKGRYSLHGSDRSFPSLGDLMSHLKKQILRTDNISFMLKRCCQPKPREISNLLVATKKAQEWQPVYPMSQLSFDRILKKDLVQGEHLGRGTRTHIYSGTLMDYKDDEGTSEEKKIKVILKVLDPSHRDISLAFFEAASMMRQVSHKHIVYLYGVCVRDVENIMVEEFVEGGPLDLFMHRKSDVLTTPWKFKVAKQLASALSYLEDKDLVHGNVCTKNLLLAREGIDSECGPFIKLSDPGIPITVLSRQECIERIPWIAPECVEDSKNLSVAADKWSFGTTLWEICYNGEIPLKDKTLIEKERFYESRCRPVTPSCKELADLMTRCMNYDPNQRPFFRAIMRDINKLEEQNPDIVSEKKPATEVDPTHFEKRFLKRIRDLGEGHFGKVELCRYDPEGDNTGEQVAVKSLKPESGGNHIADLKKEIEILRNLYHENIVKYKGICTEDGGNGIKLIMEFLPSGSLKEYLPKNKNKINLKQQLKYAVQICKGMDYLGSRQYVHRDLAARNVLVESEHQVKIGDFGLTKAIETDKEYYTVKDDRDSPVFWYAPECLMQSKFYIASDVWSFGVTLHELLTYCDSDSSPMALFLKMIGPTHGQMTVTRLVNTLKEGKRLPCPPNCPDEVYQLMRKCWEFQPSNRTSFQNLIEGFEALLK
Chain of Non-receptor tyrosine-protein kinase TYK2 (P29597 whole entry, the tested form may be a part): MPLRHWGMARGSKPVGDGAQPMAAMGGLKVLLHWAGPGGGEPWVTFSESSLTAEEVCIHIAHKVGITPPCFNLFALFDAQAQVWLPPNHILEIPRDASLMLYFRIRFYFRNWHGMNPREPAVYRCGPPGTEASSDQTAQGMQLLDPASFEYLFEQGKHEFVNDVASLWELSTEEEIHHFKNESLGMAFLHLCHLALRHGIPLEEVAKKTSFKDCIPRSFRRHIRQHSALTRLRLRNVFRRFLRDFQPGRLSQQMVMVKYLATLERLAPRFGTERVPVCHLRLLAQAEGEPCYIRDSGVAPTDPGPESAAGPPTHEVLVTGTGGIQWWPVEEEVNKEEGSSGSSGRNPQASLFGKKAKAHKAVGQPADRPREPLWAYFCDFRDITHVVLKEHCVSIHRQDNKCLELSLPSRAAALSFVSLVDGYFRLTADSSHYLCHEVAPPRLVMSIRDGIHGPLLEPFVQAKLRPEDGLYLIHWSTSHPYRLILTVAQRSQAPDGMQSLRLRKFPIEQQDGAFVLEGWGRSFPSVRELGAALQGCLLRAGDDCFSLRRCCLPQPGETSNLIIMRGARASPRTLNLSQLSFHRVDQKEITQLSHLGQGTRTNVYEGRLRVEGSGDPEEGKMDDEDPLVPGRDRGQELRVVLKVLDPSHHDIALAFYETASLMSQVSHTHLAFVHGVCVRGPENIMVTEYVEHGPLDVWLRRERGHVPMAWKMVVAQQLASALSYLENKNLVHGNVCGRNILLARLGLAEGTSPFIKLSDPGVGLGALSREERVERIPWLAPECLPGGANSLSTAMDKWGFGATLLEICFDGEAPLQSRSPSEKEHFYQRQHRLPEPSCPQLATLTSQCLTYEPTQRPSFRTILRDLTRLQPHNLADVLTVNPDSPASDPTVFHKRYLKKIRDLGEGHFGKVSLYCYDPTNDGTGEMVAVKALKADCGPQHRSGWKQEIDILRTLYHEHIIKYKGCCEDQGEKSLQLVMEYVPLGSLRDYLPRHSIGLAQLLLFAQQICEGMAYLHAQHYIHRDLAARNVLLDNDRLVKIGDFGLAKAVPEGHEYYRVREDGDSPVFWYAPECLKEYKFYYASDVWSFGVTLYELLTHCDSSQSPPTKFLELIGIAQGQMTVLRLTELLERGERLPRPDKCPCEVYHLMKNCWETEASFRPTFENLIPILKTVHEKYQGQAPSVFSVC
Chain of Tyrosine-protein kinase BTK (Q06187 whole entry, the tested form may be a part): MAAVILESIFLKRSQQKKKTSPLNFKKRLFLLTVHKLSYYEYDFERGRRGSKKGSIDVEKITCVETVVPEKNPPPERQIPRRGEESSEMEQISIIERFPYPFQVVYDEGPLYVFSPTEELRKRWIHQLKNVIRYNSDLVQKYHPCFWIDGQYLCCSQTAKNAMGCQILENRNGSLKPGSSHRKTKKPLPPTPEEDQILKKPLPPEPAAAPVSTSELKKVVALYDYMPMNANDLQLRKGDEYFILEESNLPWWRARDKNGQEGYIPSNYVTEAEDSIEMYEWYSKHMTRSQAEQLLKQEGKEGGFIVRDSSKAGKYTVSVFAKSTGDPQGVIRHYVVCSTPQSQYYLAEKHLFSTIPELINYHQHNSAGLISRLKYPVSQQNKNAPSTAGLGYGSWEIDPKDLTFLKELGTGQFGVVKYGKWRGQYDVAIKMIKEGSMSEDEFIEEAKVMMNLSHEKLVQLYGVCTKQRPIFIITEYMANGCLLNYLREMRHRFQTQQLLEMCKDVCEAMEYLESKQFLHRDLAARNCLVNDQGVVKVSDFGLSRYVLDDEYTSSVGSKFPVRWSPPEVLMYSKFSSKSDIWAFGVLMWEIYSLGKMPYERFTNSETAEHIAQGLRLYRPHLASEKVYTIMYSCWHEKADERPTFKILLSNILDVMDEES
Chain of Tyrosine-protein kinase JAK2 (O60674 whole entry): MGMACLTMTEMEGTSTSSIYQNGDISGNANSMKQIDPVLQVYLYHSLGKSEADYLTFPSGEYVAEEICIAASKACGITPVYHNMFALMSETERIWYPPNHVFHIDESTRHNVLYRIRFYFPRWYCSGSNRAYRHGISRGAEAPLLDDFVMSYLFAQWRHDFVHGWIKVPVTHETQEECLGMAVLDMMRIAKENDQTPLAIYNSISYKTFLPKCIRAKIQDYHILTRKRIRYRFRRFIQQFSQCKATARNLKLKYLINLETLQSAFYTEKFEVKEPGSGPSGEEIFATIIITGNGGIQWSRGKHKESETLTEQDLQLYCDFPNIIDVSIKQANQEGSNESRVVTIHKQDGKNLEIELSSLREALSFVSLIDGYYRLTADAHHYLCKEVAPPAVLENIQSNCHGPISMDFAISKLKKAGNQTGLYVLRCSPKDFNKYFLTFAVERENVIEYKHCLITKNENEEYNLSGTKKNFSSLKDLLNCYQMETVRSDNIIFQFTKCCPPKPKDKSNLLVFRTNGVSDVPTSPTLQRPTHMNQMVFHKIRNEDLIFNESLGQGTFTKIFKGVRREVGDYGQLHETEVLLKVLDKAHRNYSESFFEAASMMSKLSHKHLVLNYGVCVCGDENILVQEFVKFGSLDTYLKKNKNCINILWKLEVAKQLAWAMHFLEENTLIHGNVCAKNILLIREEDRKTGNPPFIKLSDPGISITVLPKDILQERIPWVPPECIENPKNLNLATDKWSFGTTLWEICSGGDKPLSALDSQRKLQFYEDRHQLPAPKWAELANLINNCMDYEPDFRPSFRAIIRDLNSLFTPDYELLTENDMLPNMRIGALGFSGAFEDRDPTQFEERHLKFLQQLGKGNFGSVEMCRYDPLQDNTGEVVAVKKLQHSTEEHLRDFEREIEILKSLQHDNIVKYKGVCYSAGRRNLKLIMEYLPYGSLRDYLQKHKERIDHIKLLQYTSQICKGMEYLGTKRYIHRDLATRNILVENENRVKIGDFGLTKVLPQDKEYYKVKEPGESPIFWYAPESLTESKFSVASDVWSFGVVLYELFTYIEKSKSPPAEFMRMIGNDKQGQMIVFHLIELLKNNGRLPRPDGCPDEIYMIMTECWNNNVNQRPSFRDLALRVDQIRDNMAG

IC50 [1]: 8.2 nM
Structure (SMILES): C=CC(=O)Nc1cccc(Nc2nc(Nc3ccc4c(c3)COB4O)ncc2OC)c1

IC50 [1]: 8.5 nM
Structure (SMILES): C=CC(=O)Nc1cccc(Nc2nc(Nc3ccc4c(c3)B(O)OC4)ncc2F)c1

IC50 [1]: > 1000 nM
Structure (SMILES): C=CC(=O)Nc1ccc(OC)c(Nc2nc(Nc3ccc4c(c3)B(O)OC4)ncc2C(F)(F)F)c1

IC50 [1]: 268 nM
Structure (SMILES): C=CC(=O)Nc1cccc(Nc2nc(Nc3cccc4c3B(O)OC4)ncc2C(F)(F)F)c1

IC50 [2]: > 1000 nM
IC50 [3]: > 1000 nM
Ratio IC50 (Homo sapiens [4]): > 1000
Ratio IC50 (Homo sapiens [5]): > 1000
Ratio IC50 (Homo sapiens [6]): > 1000
IC50 [1]: 1.5 nM
IC50 [7]: 891 nM
IC50 [8]: 0.3 nM
Structure (SMILES): C=CC(=O)Nc1cccc(Nc2nc(Nc3ccc(B(O)O)cc3)ncc2C(F)(F)F)c1

IC50 [1]: > 1000 nM
Structure (SMILES): C=CC(=O)Nc1cccc(Nc2nc(NNc3ccccc3)ncc2C(F)(F)F)c1

IC50 [1]: 6.5 nM
Structure (SMILES): C=CC(=O)Nc1cccc(Oc2nc(Nc3ccc4c(c3)COB4O)ncc2C(F)(F)F)c1

IC50 [1]: 156 nM
Structure (SMILES): C=CC(=O)Nc1cccc(Nc2nc(Nc3cc4c(cc3F)COB4O)ncc2C(F)(F)F)c1

IC50 [2]: > 1000 nM
IC50 [3]: > 1000 nM
Ratio IC50 (Homo sapiens [4]): > 1000
Ratio IC50 (Homo sapiens [5]): > 1000
Ratio IC50 (Homo sapiens [6]): > 1000
IC50 [1]: 0.6 nM
IC50 [7]: 658 nM
IC50 [8]: 0.4 nM
IC50 (Raji): 1700 nM
IC50 (Ramos): 500 nM
IC50 (HEL): 1100 nM
IC50 (JeKo-1): 500 nM
IC50 (OCI-Ly10): 1000 to 10000 nM
half-life at 1 h, 0.2 µM (in vitro [9]): 58.8 min
microsomal CLint at 1 h, 0.2 µM (in vitro [10]): 23.6 µL/min/mg
remaining at 1 h, 0.2 µM (in vitro [11]): 47.2%
Structure (SMILES): C=CC(=O)Nc1cccc(Nc2nc(Nc3ccc4c(c3)COB4O)ncc2C(F)(F)F)c1

IC50 [2]: > 1000 nM
IC50 [3]: > 1000 nM
Ratio IC50 (Homo sapiens [4]): > 1000
Ratio IC50 (Homo sapiens [5]): > 1000
Ratio IC50 (Homo sapiens [6]): > 1000
IC50 [1]: 2 nM
IC50 [7]: > 1000 nM
IC50 [8]: 1 nM
Structure (SMILES): C=CC(=O)Nc1cccc(Nc2nc(Nc3ccc4c(c3)B(O)OC4(C)C)ncc2C(F)(F)F)c1

IC50 [1]: 36.8 nM
Structure (SMILES): C=CC(=O)N1CCCC(Nc2nc(Nc3ccc4c(c3)COB4O)ncc2C(F)(F)F)C1 (centres undefined)

IC50 [1]: 63 nM
Structure (SMILES): C=CC(=O)Nc1cccc(Nc2nc(Nc3cccc4c3COB4O)ncc2C(F)(F)F)c1

IC50 [1]: > 1000 nM
Structure (SMILES): C=CC(=O)Nc1cccc(Nc2nc(Oc3ccc4c(c3)B(O)OC4)ncc2C(F)(F)F)c1

IC50 [2]: > 1000 nM
IC50 [3]: > 1000 nM
Ratio IC50 (Homo sapiens [4]): > 1000
Ratio IC50 (Homo sapiens [5]): > 1000
Ratio IC50 (Homo sapiens [6]): > 1000
IC50 [1]: 1.9 nM
IC50 [7]: > 1000 nM
IC50 [8]: 1.5 nM
Structure (SMILES): C=CC(=O)Nc1cccc(Nc2nc(Nc3ccc4c(c3)B(O)OCC4)ncc2C(F)(F)F)c1

IC50 [1]: 6.1 nM
Structure (SMILES): C=CC(=O)Nc1cccc(Nc2nc(Nc3ccc4c(c3)B(O)OC4)ncc2C)c1

IC50 [1]: 4.7 nM
Structure (SMILES): C=CC(=O)Nc1cccc(Nc2nc(Nc3ccc4c(c3)B(O)OC4)ncc2Cl)c1

IC50 [2]: > 1000 nM
IC50 [3]: > 1000 nM
Ratio IC50 (Homo sapiens [4]): > 1000
Ratio IC50 (Homo sapiens [5]): > 1000
Ratio IC50 (Homo sapiens [6]): > 1000
IC50 [1]: 2.9 nM
IC50 [7]: 972 nM
IC50 [8]: 0.5 nM
IC50 (Raji): 6800 nM
IC50 (Ramos): 2300 nM
IC50 (HEL): 5100 nM
IC50 (JeKo-1): 1200 nM
IC50 (OCI-Ly10): > 10000 nM
half-life at 1 h, 0.2 µM (in vitro [9]): 55.9 min
microsomal CLint at 1 h, 0.2 µM (in vitro [10]): 24.8 µL/min/mg
remaining at 1 h, 0.2 µM (in vitro [11]): 45%
Structure (SMILES): C=CC(=O)Nc1cccc(Nc2nc(Nc3ccc4c(c3)B(O)OC4)ncc2C(F)(F)F)c1

IC50 [1]: 6.5 nM
Structure (SMILES): C=CC(=O)Nc1cccc(Nc2nc(Nc3cccc(B(O)O)c3)ncc2C(F)(F)F)c1

IC50 [2]: > 1000 nM
IC50 [7]: 534 nM
IC50 [8]: 8.5 nM
IC50 (Raji): 17600 nM
IC50 (Ramos): 3900 nM
IC50 (HEL): 5300 nM
IC50 (JeKo-1): 1300 nM
IC50 (OCI-Ly10): > 10000 nM
half-life at 1 h, 0.2 µM (in vitro [9]): 43.4 min
microsomal CLint at 1 h, 0.2 µM (in vitro [10]): 31.9 µL/min/mg
remaining at 1 h, 0.2 µM (in vitro [11]): 38.8%
Structure (SMILES): C=CC(=O)Nc1cccc(Nc2nc(Nc3ccc(OCCOC)cc3)ncc2F)c1 [SPEBRUTINIB]

IC50 [2]: > 1000 nM
IC50 [3]: > 1000 nM
Ratio IC50 (Homo sapiens [4]): > 1000
Ratio IC50 (Homo sapiens [5]): > 1000
Ratio IC50 (Homo sapiens [6]): > 1000
IC50 [1]: 1.7 nM
IC50 [7]: > 1000 nM
IC50 [8]: 0.8 nM
Structure (SMILES): C=CC(=O)Nc1cccc(Oc2nc(Nc3ccc4c(c3)COB4O)ncc2OC)c1

IC50 [1]: 11.8 nM
Structure (SMILES): CN(C)C/C=C/C(=O)Nc1cccc(Nc2nc(Nc3ccc4c(c3)COB4O)ncc2C(F)(F)F)c1
